Test results published in US8039009B2, “Modified release formulations of memantine oral dosage forms” (priority 2004, dated 2011).

Test: Powder testing of final blends for compression (flow and compression properties)
Assay type: physicochemical
Method: The powder properties of the final blends for compression were evaluated. During compression, excellent powder flow through the hopper was visually observed. The following Table presents the results of powder testing.

- flow and compression properties (in words): poor flow properties
- Flowability Index (powder): 23.5
Structure (SMILES): CC12CC3CC(C)(C1)CC(N)(C3)C2 [memantine, 1-amino-3,5-dimethyladamantane]
